# Data: patent US12187758B2 (ROME Therapeutics, Inc., priority 2022, dated 2025)
# Assays:
# Assay type in all cases: cell-based
# [1] = Mitochondria toxicity assay with PC3 cells, in-cell ELISA COX-1; settings: 5 days treatment
# Method in brief: (§1)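 This in-cell ELISA was run on fixed, permeabilized PC3 cells after 5-day exposure to titrated compound, with cytotoxicity measured on a duplicate plate. Results are reported as categories A (<1.0 μM) to E (>100.0 μM).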
# [2] = system: phosphorylated TANK-binding kinase 1 (pTBK1); experiment: UVB-induced pTBK1 in HaCaT cells; settings: Homo sapiens, light or radiation study, pTBK1 response curves, 72 hours compound treatment, UVB
# Procedure: pTBK1 is an important signaling molecule in regulating inflammatory responses. HaCaT cells were plated in 6-well plates at a density of ˜100 k/well in HaCaT media (DMEM, optimized 1× (Addex Bio)+ 1% pen strep (Gibco)^+ 5% heat inactivated fetal bovine serum (Gibco)). The cells were then cultured at 37° C. overnight. The next day, the cells were treated with the test compounds. Each test compound was diluted and added to media aliquots to provide desired concentrations. To add the test compound+media mixture, an equivalent amount of media from each well was aspirated and then replenished with the media dosed with the test compound. The cells were then cultured for an additional 72 hours with compound treatment prior to UVB exposure.
# The media was then aspirated from the wells, with the remaining cells at least 80% confluent in each well. One mL of PBS was then added to each well, and the plate was then placed under a UVB lamp. A UVB sensor was positioned near the plate to register the plate's exposure. The cells were exposed to the UVB light until they reached 0.1 mJ/cm2. Then the plate was covered and transferred to a sterile hood for processing.
# The PBS was aspirated out of the wells, and the wells were replenished with 3 mL fresh culture media. The cells were then cultured for an additional 24 hours, and samples were processed 24 hours post-UVB exposure. To process the samples, the media was aspirated, the plate placed on ice, and the cells washed with cold PBS, which was then aspirated off. Another 1 mL of cold PBS was added to each well. The cells were then scraped in the cold PBS solution and transferred to conical tubes on ice. The cells were then spun at ≥1000 RCF at 4° C. for 5 minutes. The cells were then resuspended in 1 mL of cold PBS and transferred to a microcentrifuge tube. The cells were spun at ≥1000 RCF at 4° C. for another 5 minutes, and the PBS was aspirated off. The cell pellet was prepared for lysis.
# A RIPA lysis buffer (#BP-115, Boston BioProducts) was added to a Halt protease and […] inhibitor cocktail (#78440, ThermoFisher), and the mixture was cooled on ice. About 30 μL of the lysis buffer mix was added to the cells. The samples were briefly vortexed and then incubated on ice for at least 15 minutes. The cells were then spun≥1000 RCF at 4° C. for 5 minutes and the supernatant was transferred to a clean tube. The protein concentration of the cell lysate was measured using Pierce™ Rapid Gold BCA Protein Assay Kit #AF3225 (ThermoFisher). ELISA analysis was run on select samples using one of the following kits: • a. FastScan™ Phospho-TBK1/NAK (Ser172) ELISA Kit #46948 (Cell Signaling Technologies) • b. FastScan™ Total TBK1/NAK ELISA Kit #15816 (Cell Signaling Technologies) • c. FastScan™ Phospho-STING (Ser366) ELISA Kit #82083 (Cell Signaling Technologies) • d. FastScan™ Phospho-IRF-3 (Ser396) ELISA Kit #50386 (Cell Signaling Technologies) • e. FastScan™ Total IRF-3 ELISA Kit #29771 (Cell Signaling Technologies) • f. Phospho-NAK/TBK1 (S172) ELISA Kit (ab279952) (Abcam) • g. Phospho-IRF3 (S386) ELISA Kit (ab279833) (Abcam) Part II—Results
# In the table “A” represents values≤0.50 μM; “B” represents values from >0.50 μM to ≤2.0 μM; “C” represents values from >2.0 μM to ≤5.0 μM; “D” represents values from >5.0 μM to ≤10 μM; and “E” represents values>10 μM.
# PC3 cells = experiment: Mitochondria toxicity assay with PC3 cells, cytotoxicity (Cell Titer Glo); settings: Homo sapiens, PC-3, 120 h, 5 days treatment
# Method in brief: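 Cytotoxicity reported in μM bins, A <1.0 through E >100.0. Measured via Cell Titer Glo luminescence (30 min, room temperature) after 5-day dose-titration treatment of PC3 cells, grown in F-12K/10% FBS, at 37° C, 5% CO2.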
# [3] = system: SDH-A (succinate dehydrogenase-A); experiment: Mitochondria toxicity assay with PC3 cells, in-cell ELISA SDH-A; settings: 5 days treatment
# Method in brief: as §1
# THP1-Dual KO-TREX1 cells = experiment: THP1 TREX1 KO inhibition assay (type 1 interferon response); settings: Homo sapiens, 144 h, type 1 interferon (QUANTI-LUC), 1 μM 5-aza-2′-deoxycytidine, six days
# Method in brief: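 THP1-Dual KO-TREX1 cells were treated with a dose titration of compound, alone or with 1 μM 5-aza-2′-deoxycytidine, for six days at 37 °C. Type 1 interferon was read as secreted luciferase (QUANTI-LUC) in the supernatant, and viability by CellTiter-Glo luminescence.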
# 7S mitochondria DNA = experiment: Mitochondria DNA assay with PC3 cells; settings: Homo sapiens, PC-3, 120 h, 5 days, 7S mitochondria DNA level by qPCR relative to 18S or GAPDH
# Procedure: Exemplary compounds were tested for their effect on levels of 7S mitochondria DNA, and the DNA of housekeeping genes 18S and GAPDH. Reduction of 7S mitochondria DNA indicates off-target inhibition of mitochondrial DNA synthesis, which leads to mitochondrial toxicity. Assay procedures and results are described below.
# PC3 cells were purchased from ATCC and cultured in F-12 Kaighn's modified medium (Hyclone), 10% heat-inactivated fetal bovine serum (Gibco), 1% Penicillin-Streptomycin (Invitrogen). PC3 cells were treated with a dose titration of a test compound on 6 well plates for 5 days at 37° C., 5% CO2 in a humidified incubator.
# Cells were harvested and mitochondria DNA extraction was performed using DNeasy Blood & Tissue Kit (Qiagen) according to the manufacture's instruction.
# Mitochondria 7S and housekeeping genes 18S and GAPDH DNA was quantified by multiplex qPCR with the PowerUp™ SYBR™ Green system (Applied Biosystems). Prepare reaction mix consisting of 5 μl of 2× PowerUp™ SYBR™ Green Master Mix, 1 μl of 5 μM Primers for 7S, 18S, or GAPDH, 4 μl of DNA template from DNA extraction above. The primer sequences are below:
# qPCR was performed on QuantStudio™ 7 Flex RealTime qPCR system (Applied Biosystems) as set forth below: • a. 50° C. for 2 minutes, then • b. 95° C. for 2 minutes, then • c. 95° C. for 15 seconds, then • d. 60° C. for 60 seconds, • where then steps (c) and (d) were repeated 60 times.
# Threshold was calculated by QuantStudio™ 7 Flex Software (ThermoFisher Scientific) using the default settings. Ct values were used to evaluate the relative mitochondria DNA (mtDNA) level using the following formula: ΔCt=Ct (7S target gene)−Ct (18S) or ΔCt=Ct (7S target gene)−Ct (GAPDH). Relative mtDNA level=2^−Δct. Expression fold over DMSO control=2^−Δct (compound treated group)/2^−Δct (DMSO group)
# In the table “A” represents values≤0.1 μM; “B” represents values from >0.1 μM to ≤1.0 μM; “C” represents values from >1.0 μM to ≤10.0 μM; “D” represents values from >10.0 μM to ≤100.0 μM; and “E” represents values>100.0 μM.
IC50 (THP1-Dual KO-TREX1 cells) [µM],IC50 (7S mitochondria DNA) [µM],Structure (SMILES),IC50 [1] [µM],IC50 [2] [µM],IC50 (PC3 cells) [µM],IC50 [3] [µM]
–,–,"Nc1ccn([C@H]2C[C@H](O)[C@](CO)(C(F)(F)F)O2)c(=O)n1 [Compound 21, 4-amino-1-((2R,4S,5R)-4-hydroxy-5-(hydroxymethyl)-5-(trifluoromethyl)tetrahydrofuran-2-yl)pyrimidin-2(1H)-one]",> 100,> 10,> 100,> 100
> 1,> 100,"CC(C)C(=O)OC[C@@]1(CCl)O[C@@H](n2ccc(N)nc2=O)[C@H](F)[C@@H]1OC(=O)C(C)C [Compound 24, (2R,3R,4R,5R)-5-(4-amino-2-oxopyrimidin-1(2H)-yl)-2-(chloromethyl)-4-fluoro-2-((isobutyryloxy)methyl) tetrahydrofuran-3-yl isobutyrate]",> 100,–,> 100,> 100
> 1,0.1 to 1,"Nc1ccn([C@@H]2O[C@@](CO)(CCl)[C@@H](O)[C@H]2F)c(=O)n1 [Compound 31, 4-amino-1-((2R,3R,4R,5R)-5-(chloromethyl)-3-fluoro-4-hydroxy-5-(hydroxymethyl)tetrahydrofuran-2-yl)pyrimidin-2(1H)-one]",10 to 50,–,10 to 50,10 to 50
> 1,> 100,"Nc1nc(=O)n([C@@H]2O[C@@](CO)(CCl)[C@@H](O)[C@@H]2O)cc1F [Compound 73, 4-amino-1-((2R,3S,4S,5R)-5-(chloromethyl)-3,4-dihydroxy-5-(hydroxymethyl)tetrahydrofuran-2-yl)-5-fluoropyrimidin-2(1H)-one]",> 100,–,> 100,> 100
> 1,> 100,"CC[C@]1(CO)O[C@@H](n2cc(F)c(N)nc2=O)[C@@H](F)[C@@H]1O [Compound 77, 4-amino-1-[(2R,3S,4R,5R)-5-ethyl-3-fluoro-4-hydroxy-5-(hydroxymethyl)oxolan-2-yl]-5-fluoropyrimidin-2-one]",> 100,–,> 100,> 100
> 1,> 100,"Nc1nc(=O)n([C@@H]2O[C@@](CO)(CBr)[C@@H](O)[C@@H]2F)cc1F [Compound 86, 4-amino-1-[(2R,3S,4R,5R)-5-(bromomethyl)-3-fluoro-4-hydroxy-5-(hydroxymethyl)oxolan-2-yl]-5-fluoropyrimidin-2-one]",> 100,–,> 100,> 100
> 1,> 100,"C#C[C@]1(CO)O[C@@H](n2cc(F)c(N)nc2=O)[C@@H](O)[C@@H]1O [Compound 116, 4-amino-1-((2R,3S,4S,5R)-5-ethynyl-3,4-dihydroxy-5-(hydroxymethyl)tetrahydrofuran-2-yl)-5-fluoropyrimidin-2(1H)-one]",> 100,–,> 100,> 100
0.05 to 0.1,> 100,"[N-]=[N+]=N[C@]1(CO)O[C@@H](c2cc(I)c3c(N)ncnn23)C[C@@H]1O [Compound 161, (2R,3S,5R)-5-(4-amino-5-iodopyrrolo[2,1-f][1,2,4]triazin-7-yl)-2-azido-2-(hydroxymethyl)tetrahydrofuran-3-ol]",1 to 10,–,1 to 10,1 to 10
> 1,> 100,"CC(C)C(=O)OC[C@@]1(CCl)O[C@@H](n2cc(F)c(N)nc2=O)[C@@H](F)[C@@H]1OC(=O)C(C)C [Compound 173, (2R,3R,4S,5R)-5-(4-amino-5-fluoro-2-oxopyrimidin-1(2H)-yl)-2-(chloromethyl)-4-fluoro-2-((isobutyryloxy)methyl) tetrahydrofuran-3-yl isobutyrate]",50 to 100,–,> 100,> 100
